{
  "source": "paper PMC5013292",
  "about": "“A Putative Bacterial ABC Transporter Circumvents the Essentiality of Signal Peptidase” (mBio, 2016)",
  "key": {"[1]": {"molecular_target": "T1, full length recombinant SpsB (Staphylococcus aureus, UniProt P0A070)", "T1 construct": "500 pM full length recombinant SpsB from S. aureus", "experiment": "Enzymatic activity of recombinant SpsB", "assay_type": "biochemical, S. aureus", "conditions": "result in words; Fig. S1C", "protocol": "White 384-well low-volume polypropylene assay plates (Thermo Scientific, Waltham, MA) were pre-spotted with 25 nL per well of compound 103, serially diluted in DMSO, using an Echo instrument (Labcyte, Sunnyvale, CA). A 10 µL reaction in PBS (pH 7.4) containing 0.1% Triton X-100 was then initiated by adding 500 pM full length recombinant SpsB from S. aureus plus 10 µM fluorogenic peptide substrate Dabcyl-βAla-KPAKAAE-Edans (GL Biochem, Boston, MA). Substrate cleavage separates the Dabcyl quencher from the Edans fluorophore, resulting in 490nm fluorescence (340nm excitation). The reaction was read kinetically using an M-1000 plate reader (Tecan, Morrisville, NC), plotting the initial slope (rate) of fluorescence generation versus inhibitor concentration to derive IC50 values."}, "[2]": {"test_system": "S. aureus USA300 SpsB-low", "experiment": "MIC, USA300 SpsB-low", "assay_type": "cell-based", "conditions": "result in words", "protocol": "(§1) MICs were determined according to the standard protocol from the Clinical and Laboratory Standards Institute ([23]). Briefly, S. aureus bacteria were harvested from regular MHA plates that had been cultured for ~20 h at 37°C. Serial dilutions of compound 103 were incubated with bacteria at approximately 10^6 CFU (CFU)/ml in MHB in round-bottom 96 well plates (Corning, Corning, NY) for 22 h at 37°C. MICs were determined by the lowest concentration of compound 103 showing absence of growth by visual inspection.\nA strain of USA300 Δmcr overexpressing SpsB (USA300 SpsB-high; GNE0028) was engineered by cloning SpsB under the constitutive sarA promoter into vector pMK4, resulting in SpsB expression that was ~20-fold higher than the wild-type level as determined by Western blotting. A USA300 Δmcr strain that underexpresses SpsB (USA300 SpsB-low; […]) was generated by genomic incorporation of spsB under the isopropyl-β-D-thiogalactopyranoside (IPTG)-sensitive promoter spac; without IPTG, this strain expresses SpsB at ~5% of the wild-type level as determined by Western blotting."}, "[3]": {"test_system": "102 globally diverse clinical S. aureus isolates", "experiment": "MIC, global panel of 102 clinical isolates", "assay_type": "cell-based", "conditions": "among a panel of 102 clinical S. aureus isolates", "description": "Wild-type clinical S. aureus strains were obtained from the Network on Antibiotic Resistance in Staphylococcus aureus (NARSA/BEI) program. MRSA strain USA300 refers throughout this paper to strain NRS384 from NARSA/BEI. A global panel of 102 clinical S. aureus isolates was selected from the collection of International Health Management Associates, Inc. (IHMA; Schaumburg, IL), based on diversity of geographic locations, antibiotic resistance profiles, and sites of infection. Bacteria were cultured on cation-adjusted Mueller-Hinton agar (MHA) plates or in cation-adjusted Mueller-Hinton broth (MHB). Bacterial strains used in this study are listed in Table S5 in the supplemental material.\nas §1"}, "S. aureus USA300": {"test_system": "S. aureus USA300", "experiment": "Frequency of spontaneous resistance, USA300", "assay_type": "cell-based", "conditions": "agar with compound 103 at fourfold its MIC; 37°C, 2 days; output/input CFU", "protocol": "(§2) To determine the frequency of spontaneous resistance, suspensions containing approximately 5 × 10^9 CFU of S. aureus were cultured on MHA plates containing compound 103 at fourfold the MIC; serial dilutions were cultured in parallel on regular MHA to determine the actual number of CFU (input). The frequency of spontaneous resistance was defined as the number of viable colonies able to grow in the presence of compound 103 after culture at 37°C for 2 days (output) divided by input."}, "[4]": {"test_system": "USA300 SAUSA300_0352(K44A) (strain GNE0174)", "experiment": "Frequency of spontaneous resistance, GNE0174", "assay_type": "cell-based, S. aureus", "conditions": "K44A in SAUSA300_0352 in WT USA300 background; fourfold MIC; 37°C, 2 days; approximately 2 orders of magnitude reduced", "protocol": "as §2\n(§3) To generate mutations in SAUSA300_0351, _0352, and _0353 genes by homologous recombination, we transformed USA300 Δmcr using targeting constructs created in the vector pIMAY ([24]). To generate mutations in SAUSA300_0351, _0352, and _0353 genes in a cro/cI mutant background, we selected colonies from USA300 Δmcr cultured on plates containing fourfold the MIC of compound 103. Sequencing of PCR products of the cro/cI gene from resistant colonies yielded a clone with a Q16stop codon mutation in cro/cI (strain GNE0173). We further mutated SAUSA300_0351, _0352, and _0353 in this USA300 Δmcr cro/cI (Q16stop) clone to study the contributions of these three genes to cro/cI-mediated resistance."}, "[5]": {"test_system": "USA300 WT(pMK4) (GNE0163)", "experiment": "MIC fold increase, GNE0163", "assay_type": "cell-based, S. aureus", "protocol": "as §1"}, "[6]": {"test_system": "cro/cI(M1V)(pMK4) (GNE0107)", "experiment": "MIC fold increase, GNE0107", "assay_type": "cell-based, S. aureus", "protocol": "as §1"}, "[7]": {"test_system": "cro/cI(−14G→T)(pMK4) (GNE0096)", "experiment": "MIC fold increase, GNE0096", "assay_type": "cell-based, S. aureus", "protocol": "as §1"}, "[8]": {"test_system": "cro/cI(−62G→A)(pcro/cI-cro/cI) (GNE0100)", "experiment": "MIC fold increase, GNE0100", "assay_type": "cell-based, S. aureus", "protocol": "as §1"}, "[9]": {"test_system": "Δmcr cro/cI(Q16stop) (GNE0173)", "experiment": "MIC fold increase, GNE0173", "assay_type": "cell-based, S. aureus", "protocol": "as §1, §3"}, "[10]": {"test_system": "Δmcr cro/cI(Q16stop) ΔSAUSA300_0351 (GNE0209)", "experiment": "MIC fold increase, GNE0209", "assay_type": "cell-based, S. aureus", "protocol": "as §1, §3"}, "[11]": {"test_system": "SpsB Y30C mutant of USA300 Δmcr cro/cI(Q16stop) SAUSA300_0352(K44A)", "experiment": "MIC fold increase, SpsB Y30C mutant", "assay_type": "cell-based, S. aureus", "protocol": "as §1"}, "[12]": {"test_system": "SpsB Y30N mutant of USA300 Δmcr cro/cI(Q16stop) SAUSA300_0352(K44A)", "experiment": "MIC fold increase, SpsB Y30N mutant", "assay_type": "cell-based, S. aureus", "protocol": "as §1"}, "[13]": {"test_system": "SpsB Y30S mutant of USA300 Δmcr cro/cI(Q16stop) SAUSA300_0352(K44A)", "experiment": "MIC fold increase, SpsB Y30S mutant", "assay_type": "cell-based, S. aureus", "protocol": "as §1"}, "[14]": {"test_system": "SpsB V49L mutant of USA300 Δmcr cro/cI(Q16stop) SAUSA300_0352(K44A)", "experiment": "MIC fold increase, SpsB V49L mutant", "assay_type": "cell-based, S. aureus", "protocol": "as §1"}, "[15]": {"test_system": "SpsB V167D mutant of USA300 Δmcr cro/cI(Q16stop) SAUSA300_0352(K44A)", "experiment": "MIC fold increase, SpsB V167D mutant", "assay_type": "cell-based, S. aureus", "protocol": "as §1"}},
  "data": [
    {"compound": "CCCCc1ccc(-c2ccc(C(=O)N[C@@H](CCCCN)C(=O)N(C)[C@@H]3C(=O)N[C@@H](C)C(=O)N[C@H](C(=O)NCC(C)C(=O)O)Cc4ccc(O)c(c4)-c4cc3ccc4O)cc2)cc1", "note": "(stereo partly drawn) [Compound 103]", "values": [
      {"measurement": "inhibition of enzymatic activity of recombinant SpsB", "setting": "[1]", "value": "dose dependently inhibited"},
      {"measurement": "MIC for a strain that underexpresses SpsB", "setting": "[2]", "value": "reduced MIC"},
      {"measurement": "isolates resistant to compound 103", "setting": "[3]", "value": 7, "unit": "isolates"},
      {"measurement": "frequency of spontaneous resistance", "setting": "S. aureus USA300", "value": "3 × 10^−7"},
      {"measurement": "frequency of spontaneous resistance", "setting": "[4]", "value": "2 × 10^−9"},
      {"measurement": "MIC of compound 103 (fold increase versus MIC for USA300 WT)", "setting": "[5]", "value": 1.0, "unit": "fold"},
      {"measurement": "MIC of compound 103 (fold increase versus MIC for USA300 WT)", "setting": "[6]", "value": ">32", "unit": "fold"},
      {"measurement": "MIC of compound 103 (fold increase versus MIC for USA300 WT)", "setting": "[7]", "value": ">32", "unit": "fold"},
      {"measurement": "MIC of compound 103 (fold increase versus MIC for USA300 WT)", "setting": "[8]; GNE0100", "value": ">32", "unit": "fold"},
      {"measurement": "resistance phenotype", "setting": "[8]; GNE0100, plasmid-encoded WT cro/cI, result in words", "value": "could not complement the phenotype"},
      {"measurement": "MIC of compound 103 (fold increase versus MIC for USA300 WT)", "setting": "[9]", "value": ">32", "unit": "fold"},
      {"measurement": "MIC of compound 103 (fold increase versus MIC for USA300 WT)", "setting": "[10]; GNE0209", "value": ">32", "unit": "fold"},
      {"measurement": "resistance phenotype", "setting": "[10]; GNE0209, deletion of SAUSA300_0351, result in words", "value": "had no effect on the resistance phenotype"},
      {"measurement": "MIC of compound 103 (fold increase versus MIC for USA300 WT)", "setting": "[11]", "value": 4, "unit": "fold"},
      {"measurement": "MIC of compound 103 (fold increase versus MIC for USA300 WT)", "setting": "[12]", "value": 4, "unit": "fold"},
      {"measurement": "MIC of compound 103 (fold increase versus MIC for USA300 WT)", "setting": "[13]", "value": 4, "unit": "fold"},
      {"measurement": "MIC of compound 103 (fold increase versus MIC for USA300 WT)", "setting": "[14]", "value": 4, "unit": "fold"},
      {"measurement": "MIC of compound 103 (fold increase versus MIC for USA300 WT)", "setting": "[15]", "value": 8, "unit": "fold"}
    ]}
  ]
}
